Entries after “also recorded” stand apart in the source; their conditions may differ.
Legend:
[1] = system: PD-L1; assay: PD-L1 colocalization imaging in PD-L1-GFP HeLa cells; format: cell-based; conditions: 1 μM, 24 h
Protocol: Next, inventors assess if 6J1 can compromise PD-L1 trafficking. PDL1-GFP stable expressing HeLa cells are treated with or without 6J1 (1 μM) for 24 h. Cells are fixed and stained with Rab5 or EEA1. Their quantifications of the colocalization are shown in FIGS. 4d and 4e, respectively. […] Inventors thus further quantify cell membrane PD-L1 levels in live cells treated with or without 6J1 by flow cytometry or confocal imaging.
It has previously been shown that interfering with endosomal trafficking promotes exosome secretion. Moreover, PD-L1 has been reported to be enriched in exosomes and secreted outside the cell. Thus, inventors speculate that 6J1 may induce the secretion of the PD-L1 trapped in the endosomal compartments via exosomes. To determine whether 6J1 may induce the secretion of PD-L1 via exosomes, HeLa cells are treated with or without 6J1 (1 μM) for 24 h. The supernatant is collected. Inventors purify the exosomes from the supernatant of HeLa cells by sequential centrifugation. The concentration of extracellular vesicle is determined using a Nanosight nanoparticle analyzer. And HeLa cells are treated with or without 6J1 (1 μM) for 48 h. The cell and supernatant are collected for Western Blot analysis. […] Moreover, the activity of Rab27a in HeLa cells treated with or without 6J1 (1 μM) is examined with a GST-SHD pulldown assay.
HeLa cells are treated with or without 6J1. After 6 h, cells are collected for western blot analysis of LC3 and p62. […] In addition, ATG5-knockout HeLa cells are transfected with PD-L1-GFP and LC3-RFP, and then treated with or without 6J1 (1 μM) for 24 h. Cells are fixed and imaged. […] Furthermore, LC3B-knockout HeLa cells are transfected with PD-L1-GFP, and then treated with or without 6J1 (1 μM) for 24 h. Cells are fixed and stained with antibodies against Rab5 (FIG. 6d) or Rab27a (FIG. 6e).

[2] = system: 4T1 cells; assay: T cell-mediated tumor cell killing assay; format: cell-based, mouse; conditions: 6J1 (1 µM) per FIG. 8d legend, CCK8 assay
[3] = system: 4T1 cells; assay: Chemokine level in supernatant of 4T1 cells; format: cell-based, mouse; conditions: in vitro, 1 μM
[4] = system: Raw246.7 cells; assay: Chemokine level in supernatant of Raw246.7 cells; format: cell-based; conditions: in vitro, 1 μM
[5] = system: PD-L1-knockout 4T1 cells; assay: PD-L1-knockout 4T1 tumors in Balb/c mice; format: in vivo, mouse; conditions: 30 mg/kg, daily, oral gavage
Protocol: To assess whether the in vivo antitumor growth effect of 6J1 is related to its effect on PD-L1 in 4T1 cells, inventors knock out PD-L1 via CRISPR/Cas9 in 4T1 cells (FIG. 10a). 4T1-NC or 4T1-PD-L1 knockout cells are treated with or without 6J1 (1 μM) for 24 h. The supernatant is collected, and the concentration of extracellular vesicle is determined using a Nanosight nanoparticle analyzer. The exosomes are also collected and subjected to western blot analysis of the EVs marker and PD-L1. […] Inventors then transplant control or PD-L1-knockout 4T1 cells into the fat pad of syngeneic female Balb/c mice. The mice are randomly divided (n=5 per group) and treated with either buffer or 6J1 (30 mg/kg, daily) via oral gavage.

[6] = system: Rab27a-knockout 4T1 cells; assay: 4T1-shRab27A (Rab27a-knockout) orthotopic tumors in Balb/c mice; format: in vivo, mouse
Protocol: Therefore, it is possible that the increased exosomal PD-L1 secretion induced by 6J1 may still suppress the tumor-infiltrating T cell cytotoxicity in vivo, even though 6J1 reduces the cell surface expression level of PD-L1 on the tumor cells. To evaluate the role of exosomal PD-L1 in the tumor microenvironment and tumor progression in mice, inventors knock out Rab27a in 4T1 cells to inhibit the secretion of exosomes. 4T1-shNC or 4T1-shRab27A cells are treated with or without 6J1 (1 μM). The supernatant is collected, and the concentration of extracellular vesicle is determined using a Nanosight nanoparticle analyzer. […] Inventors analyze the plasma membrane levels of PD-L1 in 4T1-shNC or 4T1-shRab27A cells treated with or without 6J1 (1 μM). […] Next, control or Rab27a-knockout 4T1 cells are orthotopically transplanted into syngeneic fat pads of female Balb/c. The mice are randomly divided (n=5 per group) and treated with either buffer or 6J1 (30 mg/kg, daily) via oral gavage. […] Inventors also perform the immunostaining of CD8 and Granzyme B in the tumor sections. […] Since enhanced antitumor immunity leads to increased apoptosis in tumors, inventors assess the levels of cleaved caspase3 (CCA3), one of the markers of apoptosis, in tumor sections as well.

[7] = system: B16-F10 cells; assay: B16-F10 melanoma model in C57BL/6J mice; format: in vivo, mouse; conditions: 30 mg/kg, daily, oral gavage, 4 weeks
Protocol: Inventors also examine the anti-cancer effect of 6J1 in a melanoma xenograft mouse model, by the subcutaneous injection of B16-F10 cells in syngeneic C57BL mice. B16-F10 cells are subcutaneously injected into the flank of female C57BL/6J mice. The mice are randomly divided (n=6 per group). They are treated with either buffer or 6J1 (30 mg/kg, daily, oral gavage) after tumors reach around 5 mm for 4 weeks. After 4 weeks, the primary tumors are collected for analysis. […] In addition, a flow cytometry-based quantification of the levels of plasma membrane PD-L1 in the primary tumor is performed in FIG. 15e. […] In B16-F10 tumors, fold change of CD3+CD8+ T-cell populations, and percentage of intracellular IFN-γ in the isolated tumor-infiltrating lymphocytes (TILs) are determined by flow cytometry analysis in FIGS. 15f and 15g.

[8] = Oral bioavailability (stated, no method); conditions: in vivo
[9] = Rab27a-knockout 4T1 cells, 6J1 30 mg/kg, daily, oral gavage
[10] = Rab27a-knockout 4T1 cells, 6J1 30 mg/kg, daily, oral gavage, 30 mg/kg

OCCOCCN(c1ccccc1)c1nc(N/N=C/c2cccc(I)c2)nc(N2CCOCC2)n1 [Compound 6J1]
6J1-induced PD-L1 puncta ([1]; ATG5-knockout HeLa cells): no effect on 6J1-induced PD-L1 puncta
PD-L1/LC3B colocalization in 6J1-treated cells ([1]; ATG5-knockout HeLa cells): abolishes this colocalization between PD-L1 and LC3B
6J1-induced PD-L1 puncta and PD-L1 colocalization with RAB5 or RAB27A ([1]; LC3B-knockout HeLa cells): LC3B knockout does not affect
accumulation of PD-L1 in vesicles colocalized with early endosome markers EEA1 and RAB5 ([1]; PD-L1-GFP HeLa cells): clearly induces the accumulation of PD-L1 within vesicle-like structures in the cytoplasm
colocalization between PD-L1 and RAB11 (recycling endosome marker) ([1]; PD-L1-GFP HeLa cells): markedly decreases the colocalization between PD-L1 and RAB11
colocalization of PD-L1 with exosomal markers TSG101, CD63, Rab27A ([1]; PD-L1-GFP HeLa cells): significantly induces the colocalization of PD-L1 with the exosomal markers
colocalization of PD-L1-containing vesicles with LC3B puncta ([1]; control HeLa cells with PD-L1-GFP and LC3-RFP): strongly colocalized with LC3B puncta
sensitivity of 4T1 cells to pre-activated T cell-mediated cytolysis [2]: more sensitive to pre-activated T cell-mediated cytolysis
secretion of various chemokines from 4T1 cells [3]: markedly induces the secretion of various chemokines
secretion of various chemokines from Raw246.7 cells [4]: markedly induces the secretion of various chemokines
tumor growth in mice implanted with PD-L1-knockout 4T1 cells [5]: fails to decrease further tumor growth
activated tumor-infiltrating CD8+ T cell population and expression of IFN-γ vs other groups [6, 9]: significantly increased
tumor growth and tumor burden vs other groups [6, 9]: significantly smaller
cleaved caspase3 (CCA3) apoptotic signals in tumors vs other groups [6, 10]: Stronger clustered apoptotic signals
infiltrated CD8+ T cells in tumor sections (immunostaining) vs other groups [6, 10]: More infiltrated CD8+ T cells are detected; also recorded: more infiltrated CD8^+ T cells are detected
overall survival of mice bearing orthotopic 4T1 tumors vs other groups ([6]; combination of Rab27a knockout and 6J1 treatment): substantially prolongs the overall survival
animal's body weight [7]: without affecting the animal's body weight
expression of IFN-γ in tumor-infiltrating lymphocytes [7]: only subtly increases the expression of IFN-γ
growth of B16-F10 tumors [7]: markedly inhibits the growth of B16-F10 tumors
levels of PD-L1 at the cell surface of the primary tumors [7]: significantly decreases the levels of PD-L1 at the cell surface of the primary tumors
percentage of tumor-infiltrating CD8+ T cell populations [7]: markedly increases the percentage of tumor-infiltrating CD8+ T cell populations
oral bioavailability [8]: good oral bioavailability
